Results as given in ChEMBL document CHEMBL3045278, “Anticonvulsant and sedative-hypnotic activity of some novel 3-[5-(4-substituted) phenyl-1,3,4-oxadiazole-2yl]-2-styrylquinazoline-4(3H)-ones” (Med Chem Res, 2010).
Calls of active or inactive are those of the source. The calls are words filed in the database; no cut-off is given here.

Tests used:
Mus musculus [1] = assay: Neurotoxicity in Mus musculus albino (mouse) assessed as minimal motor impairment at 300 mg/kg, ip measured at 4 hr; assay type: toxicity, organism-based; set-up: dose 300 mg/kg, route intraperitoneal; conditions: in vivo
Mus musculus [2] = species on record: Mus musculus; assay: Sedative-hypnotic activity in Mus musculus albino (mouse) assessed as increase in phenobarbitone-induced sleeping time; assay type: functional, organism-based
Mus musculus [3] = assay: Anticonvulsant activity in Mus musculus albino (mouse) assessed as protection against maximal electroshock-induced seizures at 300 mg/kg, ip measured at 4 hr; assay type: functional, organism-based; set-up: dose 300 mg/kg
Mus musculus [4] = assay: Anticonvulsant activity in Mus musculus albino (mouse) assessed as protection against maximal electroshock-induced seizures at 300 mg/kg, ip measured at 0.5 hr; assay type: functional, organism-based; set-up: dose 300 mg/kg
Mus musculus [5] = assay: Neurotoxicity in ip dosed Mus musculus albino (mouse) assessed as minimal motor impairment measured at 0.5 hr; assay type: toxicity, organism-based; conditions: in vivo
Mus musculus [6] = assay: Anticonvulsant activity in Mus musculus albino (mouse) assessed as protection against subcutaneous pentylenetetrazol-induced seizures at 300 mg/kg, ip measured at 4 hr; assay type: functional, organism-based; set-up: dose 300 mg/kg
Mus musculus [7] = assay: Anticonvulsant activity in Mus musculus albino (mouse) assessed as protection against subcutaneous pentylenetetrazol-induced seizures at 300 mg/kg, ip measured at 0.5 hr; assay type: functional, organism-based; set-up: dose 300 mg/kg
Rattus norvegicus [8] = assay: Antidepressant activity in Rattus norvegicus Wistar (rat) assessed as immobility time at 100 mg/kg, ip after 60 min by forced swim pool test relative to control; conditions: route intraperitoneal
Mus musculus [9] = assay: Behavioral activity in Mus musculus albino (mouse) assessed as inhibition of locomotion at 100 mg/kg, ip after 1 hr by actophotometric analysis relative to control; assay type: functional; conditions: route intraperitoneal
Mus musculus [10] = assay: Neurotoxicity in Mus musculus albino (mouse) assessed as minimal motor impairment at 300 mg/kg, ip measured at 0.5 hr; assay type: toxicity, organism-based; set-up: dose 300 mg/kg, route intraperitoneal; conditions: in vivo
Mus musculus [11] = assay: Neurotoxicity in ip dosed Mus musculus albino (mouse) assessed as minimal motor impairment measured at 4 hr; assay type: toxicity, organism-based; conditions: in vivo
Mus musculus [12] = assay: Anticonvulsant activity in ip dosed Mus musculus albino (mouse) assessed as protection against maximal electroshock-induced seizures measured at 4 hr; assay type: functional; conditions: read-out: MED
Mus musculus [13] = assay: Behavioral activity in Mus musculus albino (mouse) assessed as inhibition of locomotion at 25 mg/kg, ip after 1 hr by actophotometric analysis relative to control; assay type: functional; conditions: route intraperitoneal
Mus musculus [14] = assay: Anticonvulsant activity in ip dosed Mus musculus albino (mouse) assessed as protection against maximal electroshock-induced seizures measured at 0.5 hr; assay type: functional; conditions: read-out: MED
Mus musculus [15] = assay: Anticonvulsant activity in ip dosed Mus musculus albino (mouse) assessed as protection against subcutaneous pentylenetetrazol-induced seizures measured at 4 hr; assay type: functional; conditions: read-out: MED
Mus musculus [16] = assay: Anticonvulsant activity in ip dosed Mus musculus albino (mouse) assessed as protection against subcutaneous pentylenetetrazol-induced seizures measured at 0.5 hr; assay type: functional; conditions: read-out: MED
Rattus norvegicus [17] = assay: Antidepressant activity in Rattus norvegicus Wistar (rat) assessed as immobility time at 25 mg/kg, ip after 60 min by forced swim pool test relative to control; conditions: route intraperitoneal

SMILES | Activity (Mus musculus [1]) | Activity (Mus musculus [2]) | Activity (Mus musculus [3]) | Activity (Mus musculus [4]) | MTC (Mus musculus [5]) [mg/kg] | Activity (Mus musculus [6]) | Activity (Mus musculus [7]) | Time (Rattus norvegicus [8]) [s] | inhibition in vivo at 100 mg/kg (Mus musculus [9]) [%] | Activity (Mus musculus [10]) | MTC (Mus musculus [11]) [mg/kg] | minimal effective dose (Mus musculus [12]) [mg/kg] | inhibition in vivo at 25 mg/kg (Mus musculus [13]) [%] | minimal effective dose (Mus musculus [14]) [mg/kg] | minimal effective dose (Mus musculus [15]) [mg/kg] | minimal effective dose (Mus musculus [16]) [mg/kg] | Time (Rattus norvegicus [17]) [s]
O=c1c2ccccc2nc(/C=C/c2ccc(Cl)cc2)n1-c1nnc(-c2ccc(Cl)cc2)o1 | Non-toxic | inactive | inactive | inactive | 100 | inactive | inactive | 100.12 | 53 | – | – | – | – | – | – | – | –
COc1ccc(-c2nnc(-n3c(/C=C/c4ccccc4)nc4ccccc4c3=O)o2)cc1 | Non-toxic | inactive | inactive | inactive | 300 | inactive | inactive | 163.75 | 41 | – | – | – | – | – | – | – | –
O=c1c2ccccc2nc(/C=C/c2ccc(Cl)cc2)n1-c1nnc(-c2ccccc2)o1 | Non-toxic | inactive | inactive | inactive | – | inactive | inactive | 151.11 | 51 | Non-toxic | – | – | – | – | – | – | –
Cc1ccc(/C=C/c2nc3ccccc3c(=O)n2-c2nnc(-c3ccc(C)cc3)o2)cc1 | Non-toxic | inactive | inactive | inactive | – | inactive | inactive | 163.21 | 40 | Non-toxic | – | – | – | – | – | – | –
Cc1ccc(-c2nnc(-n3c(/C=C/c4ccc(Cl)cc4)nc4ccccc4c3=O)o2)cc1 | Non-toxic | inactive | inactive | inactive | – | inactive | inactive | 150.76 | 56 | Non-toxic | – | – | – | – | – | – | –
O=c1c2ccccc2nc(/C=C/c2ccccc2)n1-c1nnc(-c2ccc(Cl)cc2)o1 | Non-toxic | inactive | inactive | inactive | – | inactive | inactive | 217.93 | 38 | Non-toxic | – | – | – | – | – | – | –
O=c1c2ccccc2nc(/C=C/c2ccccc2)n1-c1nnc(-c2ccccc2)o1 | Non-toxic | inactive | inactive | inactive | – | inactive | inactive | 113.14 | 48 | Non-toxic | – | – | – | – | – | – | –
O=C1NC(=O)C(c2ccccc2)(c2ccccc2)N1 [PHENYTOIN] | – | – | – | – | 100 | inactive | inactive | – | – | – | 100 | 30 | 70 | 30 | – | – | –
COc1ccc(-c2nnc(-n3c(/C=C/c4ccc(C)cc4)nc4ccccc4c3=O)o2)cc1 | Non-toxic | inactive | inactive | inactive | – | inactive | inactive | 182.82 | 42 | Non-toxic | – | – | – | – | – | – | –
CN(C)c1ccc(-c2nnc(-n3c(/C=C/c4ccc(Cl)cc4)nc4ccccc4c3=O)o2)cc1 | – | inactive | – | – | 100 | – | – | 121.21 | 49 | – | 100 | 100 | – | 100 | 300 | 300 | –
Cc1ccc(-c2nnc(-n3c(/C=C/c4ccccc4)nc4ccccc4c3=O)o2)cc1 | Non-toxic | inactive | inactive | inactive | – | inactive | inactive | 152.39 | 48 | Non-toxic | – | – | – | – | – | – | –
NC(=O)N1c2ccccc2C=Cc2ccccc21 [CARBAMAZEPINE] | – | – | – | – | 100 | – | – | – | – | – | 300 | 100 | – | 30 | 300 | 100 | 240.3
Cc1ccc(/C=C/c2nc3ccccc3c(=O)n2-c2nnc(-c3ccc(N(C)C)cc3)o2)cc1 | Non-toxic | inactive | inactive | inactive | 100 | inactive | inactive | 125.42 | 37 | – | – | – | – | – | – | – | –
COc1ccc(-c2nnc(-n3c(/C=C/c4ccc(Cl)cc4)nc4ccccc4c3=O)o2)cc1 | Non-toxic | inactive | inactive | inactive | – | inactive | inactive | 184.36 | 50 | Non-toxic | – | – | – | – | – | – | –
Cc1ccc(/C=C/c2nc3ccccc3c(=O)n2-c2nnc(-c3ccc(Cl)cc3)o2)cc1 | Non-toxic | inactive | inactive | – | – | inactive | inactive | 135.18 | 45 | Non-toxic | – | – | – | 300 | – | – | –
CCCC(CCC)C(=O)[O-].[Na+] [VALPROATE SODIUM] | Non-toxic | – | inactive | inactive | – | inactive | – | – | – | Non-toxic | – | – | – | – | – | 300 | –
CN(C)c1ccc(-c2nnc(-n3c(/C=C/c4ccccc4)nc4ccccc4c3=O)o2)cc1 | Non-toxic | inactive | inactive | inactive | – | inactive | inactive | 50.23 | 30 | Non-toxic | – | – | – | – | – | – | –
Cc1ccc(/C=C/c2nc3ccccc3c(=O)n2-c2nnc(-c3ccccc3)o2)cc1 | Non-toxic | inactive | inactive | inactive | – | inactive | inactive | 160.05 | 47 | Non-toxic | – | – | – | – | – | – | –
